What follows are compounds tested on HUMAN WHOLE BLOOD (assay: IC50 in human whole blood).
Format: cell-based
Work on `CC(C)(C)c1cccc(Nc2cc(N[C@@H]3CCOC[C@@H]3N)nnc2C(N)=O)n1` [Compound I-29, 6-((3R,4R)-3-aminotetrahydro-2H-pyran-4-ylamino)-4-(6-tert-butylpyridin-2-ylamino)pyridazine-3-carboxamide] yielded an IC50 of 1.8 µM.
With `CC(C)Oc1cccc(Nc2cc(N[C@@H]3CCOC[C@@H]3N)nnc2C(N)=O)n1` [Compound I-43, 6-((3R,4R)-3-aminotetrahydro-2H-pyran-4-ylamino)-4-(6-isopropoxypyridin-2-ylamino)pyridazine-3-carboxamide] the IC50 was 0.372 µM.
Work on `NC(=O)c1nnc(N[C@@H]2CCCC[C@@H]2N)cc1Nc1cccc(-n2cccn2)n1` [Compound I-33, 4-(6-(1H-pyrazol-1-yl)pyridin-2-ylamino)-6-((1R,2S)-2-aminocyclohexylamino)pyridazine-3-carboxamide] yielded an IC50 of 1.42 µM.
`CC(C)(O)c1cccc(Nc2cc(N[C@@H]3CCCC[C@@H]3N)nnc2C(N)=O)n1` [Compound I-37, 6-((1R,2S)-2-aminocyclohexylamino)-4-(6-(2-hydroxypropan-2-yl)pyridin-2-ylamino)pyridazine-3-carboxamide] was tested, and the IC50 was 2.34 µM.
Compound `CCCc1nc(Nc2cc(N[C@@H]3CCOC[C@@H]3N)nnc2C(N)=O)ccc1OC` [Compound I-40, 6-((3R,4R)-3-aminotetrahydro-2H-pyran-4-ylamino)-4-(5-methoxy-6-propylpyridin-2-ylamino)pyridazine-3-carboxamide] has an IC50 of 0.332 µM.
For `Cn1cnc2c(Nc3cc(N[C@@H]4CCCC[C@@H]4N)nnc3C(N)=O)cccc21` [Compound I-22, 6-((1R,2S)-2-aminocyclohexylamino)-4-(1-methyl-1H-benzo[d]imidazol-4-ylamino)pyridazine-3-carboxamide], the IC50 was 21.5 µM.
For `CCCc1cc(C)cc(Nc2cc(N[C@@H]3CCCC[C@@H]3N)nnc2C(N)=O)n1` [Compound I-38, 6-((1R,2S)-2-aminocyclohexylamino)-4-(4-methyl-6-propylpyridin-2-ylamino)pyridazine-3-carboxamide], the IC50 was 0.642 µM.
In the case of `NC(=O)c1nnc(N[C@@H]2CCCC[C@@H]2N)cc1Nc1cccc(-n2nccn2)n1` [Compound I-23, 4-(6-(2H-1,2,3-triazol-2-yl)pyridin-2-ylamino)-6-((1R,2S)-2-aminocyclohexylamino)pyridazine-3-carboxamide], the IC50 is reported as 0.81 µM.
Work on `CCOc1cccc(Nc2cc(N[C@@H]3CCCC[C@@H]3N)nnc2C(N)=O)n1` [Compound I-30, 6-((1R,2S)-2-aminocyclohexylamino)-4-(6-ethoxypyridin-2-ylamino)pyridazine-3-carboxamide] yielded an IC50 of 0.487 µM.
In the case of `Cc1ccc(Nc2cc(N[C@@H]3CCOC[C@@H]3N)nnc2C(N)=O)nc1C(C)C` [Compound I-27, 6-((3R,4R)-3-Amino-tetrahydro-pyran-4-ylamino)-4-(6-isopropyl-5-methyl-pyridin-2-ylamino)-pyridazine-3-carboxylic acid amide], the IC50 is reported as 0.313 µM.
In the case of `CC(C)(C#N)c1cccc(Nc2cc(N[C@@H]3CCCC[C@@H]3N)nnc2C(N)=O)n1` [Compound I-36, 6-((1R,2S)-2-aminocyclohexylamino)-4-(6-(2-cyanopropan-2-yl)pyridin-2-ylamino)pyridazine-3-carboxamide], the IC50 is reported as 2.09 µM.
With `COc1nc(Nc2cc(N[C@@H]3CCOC[C@@H]3N)nnc2C(N)=O)ccc1C(C)C` [Compound I-42, 6-((3R,4R)-3-aminotetrahydro-2H-pyran-4-ylamino)-4-(5-isopropyl-6-methoxypyridin-2-ylamino)pyridazine-3-carboxamide] the IC50 was 0.909 µM.
Compound `Cc1cc(Nc2cc(N[C@@H]3CCCC[C@@H]3N)nnc2C(N)=O)nc(C(C)C)c1` [Compound I-35, 6-((1R,2S)-2-aminocyclohexylamino)-4-(6-isopropyl-4-methylpyridin-2-ylamino)pyridazine-3-carboxamide] has an IC50 of 0.923 µM.
Compound `CCCc1cc(C)cc(Nc2cc(N[C@@H]3CCOC[C@@H]3N)nnc2C(N)=O)n1` [Compound I-39, 6-((3R,4R)-3-aminotetrahydro-2H-pyran-4-ylamino)-4-(4-methyl-6-propylpyridin-2-ylamino)pyridazine-3-carboxamide] has an IC50 of 0.818 µM.
